US20240041870A1, “METHODS OF TREATING SYSTEMIC LUPUS ERYTHEMATOSUS” (AbbVie Inc., priority 2022, published 2024)

System: subjects with moderately to severely active SLE
Assay: Phase 2 Study M19-130: safety and efficacy of upadacitinib vs placebo, 48-week treatment period
Assay type: in vivo, human
Excerpt: This was a Phase 2 Study (M19-130) to Investigate the Safety and Efficacy of Upadacitinib Given in Subjects with Moderately to Severely Active Systemic Lupus Erythematosus.
Subjects must have had active SLE by SLEDAI-2K ≥6 as reported and independently adjudicated (clinical score ≥4, excluding lupus headache and/or organic brain syndrome) at Screening and Baseline. If 4 points of the required entry points were for arthritis, there must also have been a minimum of 3 tender and 3 swollen joints.
The primary efficacy endpoint was achievement of SLE Responder Index (SRI)-4 and steroid dose ≤10 mg prednisone equivalent once a day (QD) at Week 24. SLE Responder Index (SRI)-4 is defined as ≥4-point reduction in Systemic Lupus Erythematosus Disease Activity Index 2000 (SLEDAI-2K) score without worsening of the overall condition (no worsening in Physician's Global Assessment [PhGA], <0.3 point increase) or the development of significant disease activity in new organ systems (no new British Isles Lupus Assessment Group ([BILAG]) A or >1 new BILAG B).
The following secondary efficacy endpoints were evaluated: • 1. Achievement of SRI-4 at Week 24 • 2. Achievement of BILAG-Based Combined Lupus Assessment (BICLA) response at Week 24 • 3. Achievement of Lupus Low Disease Activity State (LLDAS) at Week 24 • 4. Steroid burden, assessed as change from Baseline at Week 24 • 5. Number of mild, moderate, or severe flares per patient-year (respectively and overall) by Safety of Estrogens in Lupus Erythematosus National Assessment (SELENA) SLEDAI Flare Index (SFI), assessed by number and types of flare per subject through Week 24
The following additional efficacy endpoints were evaluated at all visits unless otherwise noted: • 1. Achievement of SRI-4 • 2. Achievement of SRI-5, -6, -7, -8 and steroid dose ≤10 mg prednisone equivalent QD at Weeks 24 and 48 • 3. Achievement of SRI-5, -6, -7, -8 • 4. Achievement of BICLA response • 5. Achievement of LLDAS • 6. Achievement of ≥4-point decrease in SLEDAI-2K from Baseline • 7. Steroid burden, assessed as change from Baseline • 8. Number of mild, moderate, or severe flares per patient-year (respectively and overall) by SELENA SFI, assessed by number and types of flare per subject through Week 24 and Week 48 • 9. Time to first flare by SELENA SFI after first study drug administration up to Week 24 and Week 48 • 10. Achievement of 50% reduction of tender or swollen lupus joints defined as ≥50% decrease in either tender or swollen joints (of those starting with total ≥6 affected joints) • 11. Achievement of 50% reduction in Cutaneous Lupus Erythematosus Disease Area and Severity Index (CLASI) activity score (of those starting with CLASI ≥10) • 12. Change in SLEDAI-2K from Baseline • 13. Change in BILAG from Baseline • 14. Change in PhGA from Baseline • 15. Change in Patient Global Assessment (PtGA) from Baseline • 16. Change from Baseline in Functional Assessment of Chronic Illness Therapy (FACIT)—Fatigue at Weeks 2, 12, 24, and 48 • 17. Change from Baseline in 36-Item Short Form Health Survey (SF-36) at Weeks 2, 12, 24, and 48 • 18. Change from Baseline Lupus Quality of Life questionnaire (LupusQoL) at Weeks 2, 12, 24, and 48 • 19. Change from Baseline Pain Numerical Rating Scale (NRS) at Weeks 2, 12, 24, and 48
The study was designed to investigate the safety and efficacy of upadacitinib in subjects with moderately to severely active SLE despite standard of care therapy. The study duration included a 42-day maximum screening period, a 48-week randomized, placebo-controlled, double-blind, parallel-group treatment period, and a 30-day follow-up phone call. The Week 24 Primary Analysis was performed when all subjects completed the Week 24 visit or discontinued the study. Sites and subjects remained blinded throughout the study. The study team remained blinded until the Week 24 Primary Analysis. […]

[1] = 30 mg QD oral, N = 62, Week 24 interim analysis (Example 1)
[2] = 30 mg QD oral, N = 62, Week 24 interim analysis (Example 1), listed as UPA
[3] = 30 mg QD oral, N = 62, final database (Example 2)
[4] = 30 mg QD oral, N = 62, full analysis set, Week 24 interim analysis (Example 1)
[5] = 30 mg QD oral, final database (Example 2)
[6] = 30 mg QD vs PBO (N = 75), stratum-adjusted, final database (Example 2)
[7] = 30 mg QD, N = 62, subject disposition, Week 24 interim analysis

CC[C@@H]1CN(C(=O)NCC(F)(F)F)C[C@@H]1c1cnc2cnc3[nH]ccc3n12 [Upadacitinib, (3S,4R)-3-ethyl-4-(3H-imidazo[1,2-a]pyrrolo[2,3-e]pyrazin-8-yl)-N-(2,2,2-trifluoroethyl)pyrrolidine-1-carboxamide]
Prednisone Equivalent Steroid Dose; Week 48; LS Mean Change (SE) (30 mg QD oral, N = 38, final database (Example 2)): −1.20 (0.524) | Prednisone Equivalent Steroid Dose at Week 24; LS Mean Change (SE) (30 mg QD oral, N = 48, change from Baseline, Week 24 interim analysis (Example 1)): −0.64 (0.486) | Prednisone Equivalent Steroid Dose; Week 24; LS Mean Change (SE) (30 mg QD oral, N = 48, final database (Example 2)): −0.62 (0.496) | BICLA at Week 24; % [1]: 58.1% | BICLA at Week 24; n [1]: 36 n | Flares per SELENA SLEDAI Flare Index through Week 24; Any flares [1]: 1.73 Events/PY | Flares per SELENA SLEDAI Flare Index through Week 24; Mild/Moderate [1]: 1.66 Events/PY | Flares per SELENA SLEDAI Flare Index through Week 24; Severe [1]: 0.07 Events/PY | LLDAS at Week 24; % [1]: (43.5) % | LLDAS at Week 24; n [1]: 27 n | SRI-4 at Week 24; % [1]: 53.6% | SRI-4 at Week 24; n [1]: 33 n | BICLA at Week 24; % [2]: (58.1) % | SRI-4 at Week 24; % [2]: (53.2) % | BICLA; Week 24; % [3]: (58.1) % | BICLA; Week 24; n [3]: 36 n | BICLA; Week 48; % [3]: (53.2) % | BICLA; Week 48; n [3]: 33 n | Flares per SELENA SLEDAI Flare Index Through Week 48; Any flares [3]: 2.04 Events/PY | Flares per SELENA SLEDAI Flare Index Through Week 48; Mild/Moderate [3]: 1.88 Events/PY | Flares per SELENA SLEDAI Flare Index Through Week 48; Severe [3]: 0.16 Events/PY | Flares per SELENA SLEDAI Flare Index through Week 24; Any flares [3]: 1.87 Events/PY | Flares per SELENA SLEDAI Flare Index through Week 24; Mild/Moderate [3]: 1.76 Events/PY | Flares per SELENA SLEDAI Flare Index through Week 24; Severe [3]: 0.10 Events/PY | LLDAS; Week 24; % [3]: (45.2) % | LLDAS; Week 24; n [3]: 28 n | LLDAS; Week 48; % [3]: (50.0) % | LLDAS; Week 48; n [3]: 31 n | SRI-4; Week 24; % [3]: (56.5) % | SRI-4; Week 24; n [3]: 35 n | SRI-4; Week 48; % [3]: 45.2% | SRI-4; Week 48; n [3]: 28 n | SRI-4 and Prednisone Equivalent Steroid Dose ≤10 mg; Week 24; % [3]: (54.8) % | SRI-4 and Prednisone Equivalent Steroid Dose ≤10 mg; Week 48; % [3]: (43.5) % | SRI-4 and Prednisone Equivalent Steroid Dose ≤10 mg; Week 48; n [3]: 27 n | SRI-4; Week 48; % (30 mg QD oral, N = 62, final database (Example 2), listed as UPA): (45.2) % | SRI-4 and Prednisone Equivalent Steroid Dose ≤10 mg at Week 24; % [4]: 51.6% | SRI-4 and Prednisone Equivalent Steroid Dose ≤10 mg at Week 24; n [4]: 32 n | SRI-4 and Prednisone Equivalent Steroid Dose ≤10 mg at Week 24; % (30 mg QD oral, N = 62, full analysis set, Week 24 interim analysis (Example 1), listed as UPA): (51.6) % | SRI-4 and Prednisone Equivalent Steroid Dose ≤10 mg; Week 24; n (30 mg QD oral, N = 62, full analysis set, final database (Example 2)): 34 n | 50% Reduction of Tender or Swollen Lupus Joints among Subjects with Total >=6 Affected Joints; Week 24; % [5]: (67.8) % | 50% Reduction of Tender or Swollen Lupus Joints among Subjects with Total >=6 Affected Joints; Week 24; n [5]: 40/59 | 50% Reduction of Tender or Swollen Lupus Joints among Subjects with Total >=6 Affected Joints; Week 48; % [5]: (57.6) % | 50% Reduction of Tender or Swollen Lupus Joints among Subjects with Total >=6 Affected Joints; Week 48; n [5]: 34/59 | BICLA; Week 48; Adj. Diff (−PBO) [95% CI] [6]: 30.8 | SRI-4; Week 48; Adj. Diff (−PBO) [95% CI] [6]: 30.4 | SRI-4 and Steroid Dose ≤10 mg prednisone equivalent QD; stratum-adjusted treatment difference (30 mg QD vs placebo, Week 24, Example 1): 14.0% | Discontinued from the Study Drug (All Reasons): Adverse event; % [7]: 9.7% | Discontinued from the Study Drug (All Reasons): Adverse event; n [7]: 6 n | Discontinued from the Study Drug (Primary Reasons): Adverse event; % [7]: 8.1% | Discontinued from the Study Drug (Primary Reasons): Adverse event; n [7]: 5 n | Withdrawal from the Study (All Reasons): Adverse event; % [7]: 6.5% | Withdrawal from the Study (All Reasons): Adverse event; n [7]: 4 n | Withdrawal from the Study (Primary Reasons): Adverse event; % [7]: 4.8% | Withdrawal from the Study (Primary Reasons): Adverse event; n [7]: 3 n | response rate in BICLA after Week 24 (30 mg, Week 24 to Week 48): generally maintained | response rate in SRI-4 after Week 24 (30 mg, Week 24 to Week 48): generally maintained | flare compared to placebo (30 mg, over 48 weeks): reductions in flare | time-to-first flare compared to placebo (30 mg, over 48 weeks): delays in time-to-first flare | LLDAS at Week 24 compared with placebo (30 mg, p<0.001, Example 1): greater efficacy than placebo | flare rate through Week 24 compared with placebo (30 mg, p=0.075, Example 1): lower flare rate | response rate for achievement of BICLA at Week 48 (30 mg, text of Example 2): 53.2%
